What was measured:
[1] = test system: mice after plantar incision (postoperative pain); assay: Plantar incision model of postoperative pain (von Frey filaments, Hargreaves test); assay type: in vivo, mouse; conditions: vs vehicle; for resolution of postoperative pain (mechanical and thermal hypersensitivity): von Frey filaments and Hargreaves test
Protocol: (§1) To investigate the underlying mechanisms of postoperative pain, we adopted a mouse model that is characterized by increased pain sensitivity and macrophage infiltration after a surgical incision made in the plantar aspect of the hind paw. Pain sensitivity and macrophage infiltration were evaluated in NA4A1 knockout (KO) mice. Expression and function of NR4A1 were also evaluated in neuronal and skin tissues, as well as in cultured macrophages.
We used a well-characterized animal model of postoperative pain consisting in plantar incision (FIG. 1). Specifically, FIGS. 1A-1C show an animal model of post-operative pain. FIG. 1A illustrates the experimental design depicting the plantar incision and timeline for the behavioral tests. FIG. 1B is a graph showing how, after plantar incision, mice develop mechanical hypersensitivity (assessed by von Frey filaments) and FIG. 1C is a graph showing thermal hypersensitivity (assessed by Hargreaves test). […]
Cutaneous application of an NA4A1 agonist accelerates the resolution of post-operative pain. […] FIG. 4B is a graph showing mechanical hypersensitivity as assessed by von Frey filaments before injection of the drug (prevention). FIG. 4C is a graph showing mechanical hypersensitivity as assessed by von Frey filaments after drug injection (acute analgesia). FIG. 4D is a graph showing thermal hypersensitivity as assessed by Hargreaves test before injection of the drug (prevention). FIG. 4E is a graph showing thermal hypersensitivity as assessed by Hargreaves test after drug injection (acute analgesia). […]
FIG. 5B is a graph showing mechanical hypersensitivity as assessed by von Frey filaments before injection of the drug (prevention), and FIG. 5C is a graph showing mechanical hypersensitivity as assessed by von Frey filaments after drug injection (acute analgesia). FIG. 5D is a graph showing thermal hypersensitivity as assessed by Hargreaves test before injection of the drug (prevention). FIG. 5D is a graph showing thermal hypersensitivity as assessed by Hargreaves test after drug injection (acute analgesia). […]

[2] = test system: NR4A1 knockout male mice after plantar incision; assay: Plantar incision model of postoperative pain in NR4A1 knockout mice (von Frey filaments, Hargreaves test); assay type: in vivo, mouse; conditions: local intraplantar injection, vs vehicle
Protocol: as §1
We used a well-characterized animal model of postoperative pain consisting in plantar incision (FIG. 1). Specifically, FIGS. 1A-1C show an animal model of post-operative pain. FIG. 1A illustrates the experimental design depicting the plantar incision and timeline for the behavioral tests. FIG. 1B is a graph showing how, after plantar incision, mice develop mechanical hypersensitivity (assessed by von Frey filaments) and FIG. 1C is a graph showing thermal hypersensitivity (assessed by Hargreaves test). These hypersensitivities are indicative of postoperative pain and resolve in 7 days. n=6 male mice per group, One-way ANOVA, *p<0.05 (Bonferroni).
FIG. 6A is a graph showing mechanical hypersensitivity as assessed by von Frey filaments, and FIG. 6B is a graph showing thermal hypersensitivity as assessed by Hargreaves test. […]

Peritoneal macrophages = assay: Expression of pro-inflammatory mediators in cultured peritoneal macrophages activated with LPS; assay type: cell-based, mouse; conditions: Cyto B 10 μg/ml, LPS 20 ng/ml
Protocol: Peritoneal macrophages were cultured and incubated with vehicle control, cytosporone B (Cyto B, 10 μg/ml) or/and the macrophage activator lipopolysaccharide (LPS, 20 ng/ml). n=4-8 cultures per group, One-way ANOVA, *p<0.05 (Vehicle vs. LPS, Bonferroni), #p<0.05 (LPS VS. LPS+Cyto B, Bonferroni).

[3] = test system: mice with paclitaxel-induced mechanical allodynia; assay: Paclitaxel-induced neuropathic pain (CINP) model, mechanical allodynia; assay type: in vivo, mouse; conditions: male WT mice, vs PBS
From the text: FIGS. 9A and 9B are graphs showing that NR4A1 deficiency exacerbates chemotherapy-induced neuropathic pain and neuroinflammation in DRG tissue.
FIGS. 10A and 10B are graphs showing that NA4A1 activation by Cytosporone B (Csn-B) prevents and reverses chemotherapy induced neuropathic pain. […]

## CCCCCCCC(=O)c1c(O)cc(O)cc1CC(=O)OCC [Cytosporone B]
[1]; female mice, local intraplantar injection
  resolution of postoperative pain (mechanical and thermal hypersensitivity): accelerates the resolution of postoperative pain
[1]; male mice, local intraplantar injection (i.pl.)
  resolution of postoperative pain (mechanical and thermal hypersensitivity): accelerates the resolution of postoperative pain
[1]; male mice, systemic intraperitoneal injection
  effect on postoperative pain (mechanical and thermal hypersensitivity): limited effects on postoperative pain
[2]
  resolution of postoperative pain (mechanical and thermal hypersensitivity): fails to resolve postoperative pain
Peritoneal macrophages
  expression of pro-inflammatory mediators in macrophages: decreases the expression of pro-inflammatory mediators
[3]; paclitaxel 2 mg/kg every other day x4, Csn-B intrathecal (i.t.) given with paclitaxel
  prevention of mechanical allodynia (chemotherapy induced neuropathic pain): significantly prevent
[3]; treatment 14 d after first paclitaxel delivery, different doses of Csn-B
  reversal of mechanical allodynia (chemotherapy induced neuropathic pain): reverse

Source: patent US12611393B2, “Treatment of pain by targeting NR4A1” (UNIVERSITY OF CINCINNATI, priority 2019, dated 2026)
